According to US8642612B2, “Nicotinic desensitizers and methods of selecting, testing, and using them” (Potomac Pharmaceuticals, Inc., priority 2006, dated 2014):
Read-outs that look alike come from different tables or passages of the source.

Experiments:
rat α3β4 nAChRs [1] = target: T1, rat α3β4 nAChRs (Rattus norvegicus, UniProt P04757+P12392); assay: Inhibition of nicotine-stimulated 86Rb+ efflux, cells expressing rat α3β4 nAChRs; format: cell-based
T1 construct: expressed in transfected cells; the efflux text says only stably transfected cells
Method: (§1) In brief, cells were plated into 24-well plates coated with poly-D-lysine. […] The cells were then incubated in growth medium (0.5 ml/well) containing ^86Rb^+ (2 μCi/ml) for 4 hour at 37° C. The loading mixture was then aspirated, and the cells were washed four times with 1 ml buffer (15 mM HEPES, 140 mM NaCl, 2 mM KCl, 1 mM MgSO4, 1.8 mM CaCl2, 11 mM Glucose, pH 7.4). One ml of buffer with or without compounds to be tested was then added to each well. After incubation for 2 min, the assay buffer was collected for measurements of ^86Rb^+ released from the cells. Cells were then lysed by adding 1 ml of 100 mM NaOH to each well, and the lysate was collected for determination of the amount of ^86Rb^+ that was in the cells at the end of the efflux assay. Radioactivity of assay samples and lysates was measured by liquid scintillation counting. Total loading (cpm) was calculated as the sum of the assay sample and the lysate of each well. The amount of ^86Rb^+ efflux was expressed as a percentage of […] loaded. […] IC50 values were determined by nonlinear least-squares regression analyses (GraphPad, San Diego, Calif.).

human α4β2 nAChRs [2] = target: T2, human α4β2 nAChRs (Homo sapiens, UniProt P17787+P43681); assay: biochemical; format: binding
T2 construct: expressed in transfected cells; the efflux text says only stably transfected cells
Method: (§2) Briefly, cultured cells at >80% confluence were removed from their flasks (80 cm^2) with a disposable cell scraper and placed in 10 ml of 50 mM Tris HCl buffer (pH 7.4, 4° C.). The cell suspension was centrifuged at 10,000×g for 5 min and the pellet was collected. For cells treated chronically with nicotinic agonists during culturing, the pellet was washed two more times by centrifugation in fresh buffer to remove residual drug. The cell pellet was then homogenized in 10 ml buffer with a polytron homogenizer (Model PT2100, 12 mm aggregate, 26,000 rpm, 20 seconds) and centrifuged at 36,000 g for 10 min at 4° C. The membrane pellet was resuspended in fresh buffer, and aliquots of the membrane preparation equivalent to 30 to 200 μg protein were used for binding assays. […] Bound and free ligands were separated by vacuum filtration through Whatman GF/C filters treated with 0.5% polyethylenimine. The filter-retained radioactivity was measured by liquid scintillation counting. Specific binding was defined as the difference between total binding and nonspecific binding. Data from saturation and competition binding assays were analyzed using Prism 4 (GraphPad Software, San Diego, Calif.).
(§3) All ligand binding assays were carried out using rat or human nAChRs heterologously expressed in human cells or in native rat brain tissues.

rat α3β4 nAChRs [3] = target: T1, rat α3β4 nAChRs; assay: [3H]epibatidine competition binding, rat α3β4 nAChRs expressed in HEK cells
Method: as §2, §3

rat α4β2 nAChRs = target: T3, rat α4β2 nAChRs (Rattus norvegicus, UniProt P09483+P12390); assay: [3H]epibatidine competition binding, rat α4β2 nAChRs expressed in HEK cells
T3 construct: expressed in transfected cells; host or cells: HEK cells (membrane homogenates)
Method: as §2, with “drug.” for “drug. The cell pellet was then homogenized in 10 ml buffer with a polytron homogenizer (Model PT2100, 12 mm aggregate, 26,000 rpm, 20 seconds) and centrifuged at 36,000 g for 10 min at 4° C. The membrane pellet was resuspended in fresh buffer, and aliquots of the membrane preparation equivalent to 30 to 200 μg protein were used for binding assays.”
as §3

human α4β2 nAChRs [4] = target: T2, human α4β2 nAChRs; assay: Inhibition of nicotine-stimulated 86Rb+ efflux, cells expressing human α4β2 nAChRs; format: cell-based
Method: as §1

rat α3β4 nAChRs [5] = target: T1, rat α3β4 nAChRs; format: cell-based; settings: for Agonist Activity α3β4: stimulation of 86Rb+ efflux
Method: as §1
(§4) The agonist activities of ligands on nAChRs were assessed by measuring agonist-stimulated ^86Rb^+ efflux from stably transfected cells.

human α4β2 nAChRs [6] = target: T2, human α4β2 nAChRs; format: cell-based; settings: for Agonist Activity α4β2: stimulation of 86Rb+ efflux
Method: as §1, §4

[7] = added simultaneously with nicotine

OCCCCC#Cc1cncc(OC[C@@H]2CCN2)c1 [Sazetidine-A, 6-(5-(((S)-azetidin-2-yl)methoxy)pyridin-3-yl)hex-5-yn-1-ol] was tested, and the “blocking of α3β4 nAChRs” value (rat α3β4 nAChRs [1]; 10 min preincubation) was “ineffective”, the IC50 (rat α3β4 nAChRs [1]; Acute Antagonist Potency (IC50(A), nM) α3β4, applied simultaneously with nicotine) was > 10000 nM and the IC50 (rat α3β4 nAChRs [1]; Desensitization Potency (IC50(D,10 min), nM) α3β4, 10 min pretreatment before nicotine) was > 10000 nM. For the same compound, the IC50 (rat α3β4 nAChRs [1]; IC50 α3β4 nAChRs, 0 min Pretreatment, added simultaneously with 100 μM nicotine, mean ± SEM of 3 to 7 experiments) was > 10000 nM, the IC50 (rat α3β4 nAChRs [1]; IC50 α3β4 nAChRs, 10 min Pretreatment, 10 min preincubation, then 100 μM nicotine, mean ± SEM of 3 to 7 experiments) was > 10000 nM and the “acute antagonist activity, blockade of nicotine-stimulated 86Rb+ efflux, α3β4” value (rat α3β4 nAChRs [1]; [7]) was “no antagonist activity”. The Ki (human α4β2 nAChRs [2]) was 0.64 ± 0.32 nM, the Ki (rat α3β4 nAChRs [3]) was 10000 nM and the Ki (rat α4β2 nAChRs) was 0.41 ± 0.16 nM. The “Selectivity (Ki ratio: rat α3β4/rat α4β2)” value (rat α4β2 nAChRs; ratio of Ki values) was 24,000, the Ki (rat α4β2 nAChRs; read-out: Equilibrium binding affinity (Ki, nM) α4β2, example tables, species not given) was 0.41 nM and the “concentration that nearly completely inhibited nicotine activation of α4β2 receptors” value (human α4β2 nAChRs [4]; 10 min preincubation) was ~200 nM. The IC50 (human α4β2 nAChRs [4]; Acute Antagonist Potency (IC50(A), nM) α4β2, applied simultaneously with nicotine) was ≥ 10000 nM, the IC50 (human α4β2 nAChRs [4]; Desensitization Potency (IC50(D,10 min), nM) α4β2, 10 min pretreatment before nicotine) was 26 nM and the IC50 (human α4β2 nAChRs [4]; IC50 α4β2 nAChRs, 0 min Pretreatment, added simultaneously with 100 μM nicotine, mean ± SEM of 3 to 7 experiments) was > 10000 nM. For the same compound, the IC50 (human α4β2 nAChRs [4]; IC50 α4β2 nAChRs, 10 min Pretreatment, 10 min preincubation, then 100 μM nicotine, mean ± SEM of 3 to 7 experiments) was ~30 nM, the “acute antagonist activity, blockade of nicotine-stimulated 86Rb+ efflux, α4β2” value (human α4β2 nAChRs [4]; [7]) was “no antagonist activity” and the “EC50 for activation of channel function (86Rb+ efflux)” value (rat α3β4 nAChRs [5]; rat α3β4 receptors, mean ± SEM, FIG. 2B) was “could not be calculated”. For the same compound, the “Agonist Activity α3β4” value (rat α3β4 nAChRs [5]) was “Not detected”, the “Agonist Activity α3β4” value (rat α3β4 nAChRs [5]; listed as sazetidine-A) was “no agonist activity” and the “EC50 for activation of channel function (86Rb+ efflux)” value (human α4β2 nAChRs [6]; human α4β2 receptors, mean ± SEM, FIG. 2A) was “could not be calculated”. The “Agonist Activity α4β2” value (human α4β2 nAChRs [6]) was “Not detected” and the “Agonist Activity α4β2” value (human α4β2 nAChRs [6]; listed as sazetidine-A) was “no agonist activity”.
